Read-outs that look alike come from different tables or passages of the source. One block for each molecule: values may come before it. Positions of bridges follow the written chain, without caps; N, C: chain ends. Residues, ends and D or L forms follow the SMILES beside them.
Experiments:
[1] = test system: chick embryonic chorioallantoic membranes; assay: Chick chorioallantoic membrane angiogenesis assay; type: in vivo; details: for Percent Inhibition of Angiogenesis: 24 hours; for inhibition of angiogenesis (in words): 3, 17 and 33 μg/mesh
Description: Another cell adhesion assay evaluates the ability of a modulating agent to block angiogenesis (the growth of blood vessels from pre-existing blood vessels). This ability may be assayed using the chick chorioallantoic membrane assay described by Iruela-Arispe et al., Molecular Biology of the Cell 6:327-343, 1995. Briefly, a modulating agent may be embedded in a mesh composed of vitrogen at one or more concentrations (e.g., ranging from about 1 to 100 μg/mesh). The mesh(es) may then be applied to chick chorioallantoic membranes. After 24 hours, the effect of the peptide may be determined using computer assisted morphometric analysis. A modulating agent should inhibit angiogenesis by at least 25% at a concentration of 33 μg/mesh.
The chick chorioallantoic membrane assay was used to assess the effects of cyclic peptides on angiogenesis (Iruela-Arispe et al., Molecular Biology of the Cell 6:327-343, 1995). Cyclic peptides were embedded in a mesh composed of vitrogen at concentrations of 3, 17, and 33 μg/mesh. The meshes were then applied to 12-day-old chick embryonic chorioallantoic membranes. After 24 hours, the effects of the peptides on angiogenesis were assessed by computer assisted morphometric analysis.

N-cadherin = biological target: T1, N-cadherin (Gallus gallus, UniProt P10288); assay: Neurite outgrowth inhibition, rat neurons (Example 21); type: cell-based; details: 250 μg/mL; for inhibition at 250 µg/mL: read-out: % Inhibition of neurite outgrowth
T1 construct: expressed in transfected cells; host or cells: 3T3 fibroblasts (monolayer)
T1 sequence (P10288 165-912): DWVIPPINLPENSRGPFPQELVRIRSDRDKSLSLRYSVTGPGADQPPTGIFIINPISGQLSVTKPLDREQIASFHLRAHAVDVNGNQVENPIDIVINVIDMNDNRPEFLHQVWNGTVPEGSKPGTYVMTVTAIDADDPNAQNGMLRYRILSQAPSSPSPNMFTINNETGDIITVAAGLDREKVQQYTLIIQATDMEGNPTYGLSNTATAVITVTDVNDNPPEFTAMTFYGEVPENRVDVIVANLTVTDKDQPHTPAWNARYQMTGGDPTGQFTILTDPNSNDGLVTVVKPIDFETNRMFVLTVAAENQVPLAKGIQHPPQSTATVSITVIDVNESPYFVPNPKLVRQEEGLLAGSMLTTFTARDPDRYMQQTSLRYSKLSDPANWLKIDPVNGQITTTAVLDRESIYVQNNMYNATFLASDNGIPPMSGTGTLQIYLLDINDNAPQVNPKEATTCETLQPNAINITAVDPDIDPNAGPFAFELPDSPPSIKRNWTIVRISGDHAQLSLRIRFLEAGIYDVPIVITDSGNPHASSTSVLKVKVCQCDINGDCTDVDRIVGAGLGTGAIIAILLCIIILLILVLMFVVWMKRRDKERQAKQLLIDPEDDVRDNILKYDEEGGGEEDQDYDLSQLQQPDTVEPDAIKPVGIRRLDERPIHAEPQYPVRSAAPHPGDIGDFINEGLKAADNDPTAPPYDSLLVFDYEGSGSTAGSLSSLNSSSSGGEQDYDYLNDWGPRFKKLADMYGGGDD

SKOV3 cells = assay: Disruption of human ovarian cancer cell (SKOV3) adhesion; type: cell-based; details: for activity in SKOV3 cells (cell adhesion): 0.01-1 mg/mL; for disruption of SKOV3 cell adhesion: 1 mg/mL media, within 24 hours
Description: FIGS. 37A and 37B are photographs illustrating the effect of N—Ac-CHAVC-Y—NH2 (SEQ ID NO:84) on SKOV3 cell adhesion. A confluent culture of SKOV3 cells was briefly trypsinated and counted using a hemacytometer. The cells were diluted to 5×10^3/mL in MEM (Gibco BRL) containing 10% FBS (Wisent). A 10 mg/mL solution of peptide was added directly to the media at a concentration of 1 mg/mL. The plate was incubated in a humidified chamber at 37° C. for 24 hours in 5% CO2. Morphological changes were evaluated after 24 hours.
The human ovarian cancer cell line SKOV3 (ATCC #HTB-77) expresses N-cadherin. SKOV3 cells were cultured in a modified MEM-based media containing 10% FCS. Cells were grown in T-250 culture flasks and maintained by periodic subculturing. Cyclic peptides were tested on cells grown in individual wells of 96-well culture dishes (surface area of each well was 0.32 cm^2). Cells were harvested from flasks and seeded at a density of 50,000 cells per well in 0.1 mL media containing the cyclic peptides at concentrations of 1, 0.1, or 0.01 mg/mL, or in the absence of cyclic peptide. Media control wells were also established. Cultures were evaluated periodically by microscopic examination under both bright field and phase contrast conditions. Cultures were maintained for 48 hours.

[2] = Cytotoxicity, MTT assay, IAFp2; type: cell-based; details: human, read-out: IAFp2 Cytotox (IC50)
Description: N—Ac-CHAVC-NH2 (SEQ ID NO:10) and the control peptide N—Ac-CHGVC-NH2 (SEQ ID NO:11) were evaluated for possible cytotoxic effects on human microvascular endothelial (HMVEC; Clonetics), human umbilical vein endothelial (HUVEC; ATCC #CRL-1730), IAFp2 (human fibroblast cell line; Institute Armand-Frapier, Montreal, Quebec), WI-38 (human fibroblast cell line; ATCC #CCL-75), MDA-MB231 (human breast cancer cell line; ATCC #HTB-26), and PC-3 (human prostate cancer cell line; ATCC #CRL-1435) cells utilizing the MTT assay (Plumb et al., Cancer Res. 49:4435-4440, 1989). Neither of the peptides was cytotoxic at concentrations up to and including 100 μM. Similarly, neither of the peptides was capable of inhibiting the proliferation of the above cell lines at concentrations up to 100 μM, as judged by ^3H-thymidine incorporation assays.

[3] = 3 μg/mesh, absence (−) of 0.01 mM VEGF
[4] = 3 μg/mesh, presence (+) of 0.01 mM VEGF
[5] = 17 μg/mesh, absence (−) of 0.01 mM VEGF
[6] = 17 μg/mesh, presence (+) of 0.01 mM VEGF
[7] = 33 μg/mesh, absence (−) of 0.01 mM VEGF
[8] = 33 μg/mesh, presence (+) of 0.01 mM VEGF

inhibition at 250 µg/mL (N-cadherin): 82%
Structure (SMILES): CC[C@H](C)[C@@H]1NC(=O)[C@H](CC(=O)O)NC(=O)[C@H](C(C)C)NC(=O)[C@H](C)NC(=O)[C@H](Cc2c[nH]cn2)NC(=O)[C@H](C)NC(=O)[C@@H](NC(C)=O)CSSC[C@@H](C(N)=O)NC1=O (Ac-CAHAVDIC-NH2; disulfide 1-8)
Percent Inhibition of Angiogenesis [1, 3]: −1%^ | Percent Inhibition of Angiogenesis [1, 4]: 21% | Percent Inhibition of Angiogenesis [1, 5]: 15% | Percent Inhibition of Angiogenesis [1, 6]: 37% | Percent Inhibition of Angiogenesis [1, 7]: 33% | Percent Inhibition of Angiogenesis [1, 8]: 49% | inhibition of angiogenesis (in words) [1]: inhibited angiogenesis significantly | activity in SKOV3 cells (cell adhesion) (SKOV3 cells): inactive

Structure (SMILES): CC(=O)N[C@H]1CSSC[C@@H](C(N)=O)NC(=O)[C@H](CC(=O)O)NC(=O)[C@H](C(C)C)NC(=O)[C@H](C)NC(=O)[C@H](Cc2c[nH]cn2)NC(=O)[C@H](C)NC1=O [N—Ac—CAHAVDC—NH2, N-Ac-Cys-Ala-His-Ala-Val-Asp-Cys-NH2] (Ac-CAHAVDC-NH2; disulfide 1-7)
Percent Inhibition of Angiogenesis [1, 3]: 21% | Percent Inhibition of Angiogenesis [1, 4]: 59% | Percent Inhibition of Angiogenesis [1, 5]: 27% | Percent Inhibition of Angiogenesis [1, 6]: 72% | Percent Inhibition of Angiogenesis [1, 7]: 31% | Percent Inhibition of Angiogenesis [1, 8]: 79% | inhibition of angiogenesis (in words) [1]: inhibited angiogenesis significantly | activity in SKOV3 cells (cell adhesion) (SKOV3 cells): inactive

Structure (SMILES): CC(=O)N[C@H]1CSSC[C@@H](C(N)=O)NC(=O)[C@H](C(C)C)NC(=O)[C@H](C)NC(=O)[C@H](Cc2c[nH]cn2)NC1=O [N—Ac—CHAVC—NH2, N-Ac-Cys-His-Ala-Val-Cys-NH2]
Percent Inhibition of Angiogenesis [1, 3]: 12% | Percent Inhibition of Angiogenesis [1, 4]: 46% | Percent Inhibition of Angiogenesis [1, 5]: 22% | Percent Inhibition of Angiogenesis [1, 6]: 51% | Percent Inhibition of Angiogenesis [1, 7]: 28% | Percent Inhibition of Angiogenesis [1, 8]: 51% | inhibition of neurite outgrowth (in words) (N-cadherin): significantly inhibited neurite outgrowth | inhibition at 250 µg/mL (N-cadherin): 65% | IC50 ([2]; IAFp2 fibroblast cell line): > 100 µM | disruption of SKOV3 cell adhesion (SKOV3 cells): disrupted SKOV3 cell adhesion | SKOV3 cell morphology (SKOV3 cells; 0.5 or 1 mg/ml, 24-48 hours (figure legends)): SKOV3 cells retract from one another and round-up

inhibition at 250 µg/mL (N-cadherin): 0%
Structure (SMILES): CC(=O)N[C@H]1CSSC[C@@H](C(N)=O)NC(=O)[C@H](C(C)C)NC(=O)CNC(=O)[C@H](Cc2c[nH]cn2)NC1=O [N—Ac—CHGVC—NH2, reference compound]
IC50 ([2]; IAFp2 cells (human fibroblast cell line)): > 100 µM | disruption of SKOV3 cell adhesion (SKOV3 cells): had no affect on cell adhesion

From patent US20040106545A1, “Compounds and methods for modulating cell adhesion” (priority 1996, published 2004)
